Reference: patent publication US7875607B2, “7,8-bicycloakyl-chroman derivatives” (Ampere Life Sciences, Inc., priority 2004, dated 2011)

How the values were obtained:
[1] = target: T1, porcine leukocyte 12/15-lipoxygenase (Sus scrofa, UniProt P16469); test: 12/15-Lipoxygenase enzyme assay; assay type: biochemical; conditions: 70 μM arachidonic acid, pH 7.4; read-out: IC50, inhibition of 12/15-Lipoxygenase
T1 sequence (P16469 1-663): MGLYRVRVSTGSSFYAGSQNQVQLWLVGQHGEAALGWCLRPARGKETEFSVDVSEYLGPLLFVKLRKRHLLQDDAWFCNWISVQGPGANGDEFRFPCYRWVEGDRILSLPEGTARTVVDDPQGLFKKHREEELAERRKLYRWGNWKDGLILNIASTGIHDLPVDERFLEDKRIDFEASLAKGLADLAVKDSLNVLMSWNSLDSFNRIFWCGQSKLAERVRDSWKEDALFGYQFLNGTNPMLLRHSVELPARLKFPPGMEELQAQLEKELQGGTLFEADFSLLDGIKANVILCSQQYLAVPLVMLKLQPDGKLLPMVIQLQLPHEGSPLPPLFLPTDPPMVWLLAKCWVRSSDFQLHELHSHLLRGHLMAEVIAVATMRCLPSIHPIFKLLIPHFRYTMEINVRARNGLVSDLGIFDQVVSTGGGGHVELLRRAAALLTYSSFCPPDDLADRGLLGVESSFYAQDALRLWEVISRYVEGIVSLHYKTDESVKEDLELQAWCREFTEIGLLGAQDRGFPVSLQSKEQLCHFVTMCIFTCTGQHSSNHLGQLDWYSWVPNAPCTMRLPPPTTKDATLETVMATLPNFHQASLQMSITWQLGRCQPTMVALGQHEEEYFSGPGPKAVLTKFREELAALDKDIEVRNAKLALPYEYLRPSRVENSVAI
Procedure: This procedure was used for measuring the enzymatic activity of porcine leukocyte 12/15-lipoxygenase using a calorimetric method based on the ferric oxidation of xylenol orange.
(§1) Porcine Leukocyte 12/15-lipoxygenase (Cayman Cat # 60300) was used in this assay. Test compound and/or vehicle was added to 1.3U 12/15-lipoxygenase in 50 mM Tris-HCl buffer, pH 7.4. The reaction was initiated by addition of 70 μM arachidonic acid in Tris-HCl buffer, pH 7.4, and terminated after a 10 minute incubation at room temperature by addition of FOX reagent (25 mM sulphuric acid, 100 μM xylenol orange, 100 μM iron (II) sulphate, methanol:water 9:1). The yellow color of acidified xylenol orange was converted to a blue color by the lipid hydroperoxide-mediated oxidation of Fe^2+ ions and the interaction of the resulting Fe^3+ ions with the dye. The complex was allowed to form during a 1 hour incubation at room temperature with shaking. Absorbance of the Fe^3+ complex was then measured at […] using a spectrophotometer.
(§2) Negative controls contained enzyme during the incubation step but substrate was not added until after the FOX reagent.
Compounds are screened at 5 concentrations in triplicate starting at 10 μM

[2] = system: LTB4 release from MPRO cell line; test: LTB4-cell assay; assay type: cell-based; conditions: Mus musculus; differentiated MPRO cells, 1 μM A23187, 1 hour; read-out: EC50, inhibition of LTB4
Procedure: This procedure was used for measuring the release of the leukotriene LTB4 from a neutrophil cell line using a competitive ELISA technique.
A mouse promyelocytic cell line (MPRO) was used in this assay. These cells are committed immature neutrophils that can be differentiated into mature neutrophils by treatment with 10 μM all-trans retinoic acid for 72 hours
Following 72 hours of differentiation, cells were stimulated with 1 μM of a calcium ionophore (A23187) in the presence or absence of test compound or vehicle for 1 hour at 37° C. After this time, supernatant was removed from the cells and the LTB4 levels were determined following manufacturer's instructions, using a Leukotriene B4 EIA kit from Cayman (Cat # 520111)
The negative controls were media samples from differentiated but unstimulated cells.
The compounds were screened at 5 concentrations in quadruplicate starting at 10 μM

[3] = system: dopaminergic neuronal cell line; test: High glutamate-induced oxidative stress assay (HGOS); assay type: cell-based; conditions: Mus musculus; 30 mM glutamate, 16 hrs; read-out: EC50, protection against HGOS cell injury and cell death
Source text: Protection against redox stress can be further evaluated in cell culture using high glutamate induced oxidative stress (HGOS) in mouse dopaminergic cell lines. The cytotoxic effect of glutamate is not due to excitotoxicity, as this cell line is devoid of inotropic glutamate receptors. Rather, the glutamate-induced toxicity of dopaminergic cells is associated with an inhibition of cystine transport which subsequently leads to depletion of intracellular glutathione (GSH) levels (Murphy T. H., et al. Neuron 2, 1547-1558, 1989), activation of neuronal 12-lipoxygenase (Li, Y. et al., Neuron 19, 453-463, 1997), increased ROS production (Tan S. et al., J. Cell Biol. 141, 1423-1432, 1998) and elevated intracellular Ca^2+ (Li, Y. et al., see supra). Some molecules were measured for their ability to protect cells against glutamate-induced stress and the assay is detailed in Examples.
This procedure was used to induce high glutamate-induced oxidative stress (HGOS) in a dopaminergic neuronal cell line. Using this assay the potency and efficacy of test articles against HGOS neuronal cell injury and cell death was established in a high throughput manner.
The cells were seeded into 96-well plates at a density of 2000 per well and left to grow for 72 hours in a 33° C. incubator with 5% CO2 in air atmosphere. The passage number of the cells for each assay experiment were no later than p11 in order to minimize experimental variation.
All compounds were dissolved in DMEM-No Glu containing 1 mM glucose, 30 mM glutamate and 1×Pen/Strep. DMEM-No Glu with 1 mM glucose and 1×P/S was used as the negative control, DMEM-No Glucose with 1 mM glucose, […] was used as a positive control and 100 μM Glutathione was added to the positive control as a standard. All of the procedures for this involving the making and dilution of compounds were performed using aseptic conditions and with minimal light.
The plates were removed from the incubator and examined under the microscope for morphological appearance and density. Using an aseptic technique and an 8-channel aspirator the media was carefully removed from the cells and replaced with 200 μl of 1×HBSS. This was done as quickly as possible to prevent the cells drying out. The plates were then placed in the humidified 37° C. incubators of the Biomek 2000 Side Loader. Four plates were washed at a time so as to minimize the time that the cells were sitting in 1×HBSS prior to addition of the compound test solution.
The Beckman Biomek workstations were used to load the compounds and controls from the mother plates onto the cell plates that were prewashed with HBSS under sterile conditions. The plates were incubated in the upper HTS incubator at 37° C. in 5% CO2 for exactly 16 hrs. The following day, using the Beckman Biomek workstations, the plates were removed from the incubator. Using Cell Tracker Addition, the compounds were removed from the plates, washed once with […] of pre-warmed 1×HBSS and then 100 μL of 5 μM Cell Tracker Green was added to each well. The plates were incubated at 37° C. for 30 min to allow the dye to enter the cell and be cleaved by the esterases. After washing the cells twice with prewarmed 1×HBSS, the plates were read with the 485 excitation; 538 emission filter pair on a Fluoroskan.

[4] = system: LTB4 production in heparinized whole blood; test: Inhibition of LTB4 production in blood; assay type: cell-based, rat or mouse; conditions: 20 μM A23187, read-out: EC50, protection against LTB4
Procedure: The blood was collected in heparinized tubes or syringes to prevent clotting. Heparin was at 20 USP U/ml. About 3-5 ml of blood was collected per rat and about 0.5-0.75 ml per mouse. This assay required 200 μl/data point, therefore a 96 well plate requires 20 ml.
The Calcium ionophore A23187 was prepared as a 10 mM stock solution in DMSO and the test agent is prepared in DMSO so that <1 μl DMSO will be added to the well
200 μl blood per well were added in a round bottom 96 well clear plastic 96 well plate followed by the test agent. After 10 minutes incubation at 37° C., 5 μl of Calcium ionophore A23187 for a final concentration of 20 μM were added and mixed, and further incubated for 30 min. After 1000×g centrifugation to pellet blood cells, 20 μl plasma was carefully removed.
20 μl plasma were added to 80 μl methanol to precipitate protein and mixed. This was further incubated 10 min. at room temperature and centrifuged at 1000×g to pellet protein.
Following manufacturer's instructions, the commercially available EIA kit was used to subsequently measure the LTB4 production in the samples. The LTB4 levels produced in the vehicle control sample were then compared to those in which the test compound had been added. From this a percent inhibition of LTB4 production by each concentration of test compound was calculated and the IC50 for inhibition of LTB4 production for each test compound was determined.

[5] = target: T2, human recombinant 5-lipoxygenase (Homo sapiens, UniProt P09917); test: 5-Lipoxygenase enzyme assay; assay type: biochemical; conditions: 70 μM arachidonic acid, pH 7.4
T2 construct: purchased Cayman 60402
T2 sequence (P09917 1-674): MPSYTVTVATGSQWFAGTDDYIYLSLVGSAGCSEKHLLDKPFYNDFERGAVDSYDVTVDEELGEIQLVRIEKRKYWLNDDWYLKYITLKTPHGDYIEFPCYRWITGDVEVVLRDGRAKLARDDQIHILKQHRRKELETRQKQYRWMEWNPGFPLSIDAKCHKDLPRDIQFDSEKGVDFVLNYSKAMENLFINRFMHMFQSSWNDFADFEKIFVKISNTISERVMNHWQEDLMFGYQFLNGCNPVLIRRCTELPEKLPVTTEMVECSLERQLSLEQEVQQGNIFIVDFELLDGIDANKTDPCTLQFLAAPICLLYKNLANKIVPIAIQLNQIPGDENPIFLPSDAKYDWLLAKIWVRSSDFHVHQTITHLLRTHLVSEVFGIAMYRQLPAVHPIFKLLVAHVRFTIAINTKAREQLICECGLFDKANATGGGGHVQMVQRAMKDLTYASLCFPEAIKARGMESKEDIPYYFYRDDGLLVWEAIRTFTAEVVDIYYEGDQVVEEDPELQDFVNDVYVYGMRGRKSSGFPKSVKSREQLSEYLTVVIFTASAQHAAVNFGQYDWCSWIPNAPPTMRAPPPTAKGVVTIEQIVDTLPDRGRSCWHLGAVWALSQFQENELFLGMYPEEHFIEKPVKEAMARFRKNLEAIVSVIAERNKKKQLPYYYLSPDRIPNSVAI
Procedure: This procedure was used for measuring the enzymatic activity of human recombinant 5-lipoxygenase using a […] method based on the ferric oxidation of xylenol orange.
as §1, with “Human recombinant 5-lipoxygenase” for “Porcine Leukocyte 12/15-lipoxygenase”, “60402)” for “60300)”, “The test” for “Test”, “0.5U 5-lipoxygenase” for “1.3U 12/15-lipoxygenase”
as §2
Compounds were screened at 5 concentrations in triplicate starting at 10 μM

CC1(c2nccs2)CCc2cc(O)c3c(c2O1)C1CCC3C1 (stereo not drawn) [2-Methyl-2-thiazol-2-yl-3,4,7,8,9,10-hexahydro-7,10-methano-2H-benzo[h]chromen-6-ol]
IC50 [1]: ≤ 10 µM | EC50 [2]: ≤ 5 µM

CC1(c2cccs2)CCc2cc(O)c3c(c2O1)C1CCC3C1 (stereo not drawn) [2-methyl-2-thiophen-2-yl-3,4,7,8,9,10-hexahydro-7,10-methano-2H-benzo[h]chromen-6-ol]
IC50 [1]: ≤ 10 µM | EC50 [3]: ≤ 1 µM | EC50 [4]: ≤ 10 µM | EC50 [2]: ≤ 5 µM

CC1(CCCSc2ccncc2)CCc2cc(O)c3c(c2O1)C1CCC3C1 (stereo not drawn) [2-Methyl-2-[3-(pyridin-4-ylsulfanyl)-propyl]-3,4,7,8,9,10-hexahydro-7,10-methano-2H-benzo[h]chromen-6-ol]
IC50 [1]: ≤ 10 µM | IC50 [5]: ≤ 5 µM | EC50 [2]: ≤ 5 µM

CC1(C)CCc2cc(O)c3c(c2O1)C1CCC3C1 (stereo not drawn) [2,2-Dimethyl-3,4,7,8,9,10-hexahydro-7,10-methano-2H-benzo[h]chromen-6-ol]
IC50 [1]: ≤ 10 µM | IC50 [5]: ≤ 5 µM | EC50 [4]: ≤ 10 µM | EC50 [2]: ≤ 5 µM

Cc1c(O)c2c(c3c1CCC(C)(C)O3)C1CCC2CC1 [2,2,5-Trimethyl-3,4,7,8,9,10-hexahydro-7,10-ethano-2H-benzo[h]chromen-6-ol]
IC50 [1]: ≤ 10 µM | EC50 [2]: ≤ 5 µM
